# Legend:
# JAK1 = JAK1 (Homo sapiens (Human), UniProt P23458); assay: Biochemical JAK and Tyk2 Kinase Assays (LanthaScreen), JAK1; conditions: 25 μM ATP (Km), pIC50 converted to pKi by Cheng-Prusoff; for Ki: read-out: JAK 1 (pKi) (converted)
# JAK2 = JAK2 (Homo sapiens (Human), UniProt O60674); assay: Biochemical JAK and Tyk2 Kinase Assays (LanthaScreen), JAK2; conditions: 3 μM ATP (Km); pIC50 converted to pKi by Cheng-Prusoff
# Procedure: (§1) Assay 1: Biochemical JAK and Tyk2 Kinase Assays
# (§2) A panel of four LanthaScreen JAK biochemical assays (JAK1, 2, 3 and Tyk2) were carried in a common kinase reaction buffer (50 mM HEPES, pH 7.5, 0.01% Brij-35, 10 mM MgCl2, and 1 mM EGTA). Recombinant GST-tagged JAK enzymes and a GFP-tagged STAT1 peptide substrate were obtained from Life Technologies.
# (§3) Serially or discretely diluted compounds were pre-incubated with each of the four JAK enzymes and the substrate in white 384-well microplates (Corning) at ambient temperature for 1 h. ATP was subsequently added to initiate the kinase reactions in 10 μL total volume, with 1% DMSO. The final enzyme concentrations for JAK1, 2, 3 and Tyk2 are 4.2 nM, 0.1 nM, 1 nM, and 0.25 nM respectively; the corresponding Km ATP concentrations used are 25 μM, 3 μM, 1.6 μM, and 10 μM; while the substrate concentration is 200 nM for all four assays. Kinase reactions were allowed to proceed for 1 hour at ambient temperature before a 10 μL preparation of EDTA (10 mM final concentration) and Tb-anti-pSTAT1 (pTyr701) antibody (Life Technologies, 2 nM final concentration) in TR-FRET dilution buffer (Life Technologies) was added. The plates were allowed to incubate at ambient temperature for 1 h before being read on the EnVision reader (Perkin Elmer). Emission ratio signals (520 nm/495 nm) were recorded and utilized to calculate the percent inhibition values based on DMSO and background controls.
# (§4) For dose-response analysis, percent inhibition data were plotted vs. compound concentrations, and IC50 values were determined from a 4-parameter robust fit model with the Prism software (GraphPad Software). Results were expressed as pIC50 (negative logarithm of IC50) and subsequently converted to pKi (negative logarithm of dissociation constant, Ki) using the Cheng-Prusoff equation.
# Tyk2 = Tyk2 (Homo sapiens (Human), UniProt P29597); assay: Biochemical JAK and Tyk2 Kinase Assays (LanthaScreen), Tyk2; conditions: 10 μM ATP (Km), pIC50 converted to pKi by Cheng-Prusoff; for Ki: read-out: Tyk 2 (pKi) (converted)
# Procedure: as §1, §2, §3, §4
# physchem = conditions: thermodynamic from solid
# Caco-2 cell monolayer = assay: Caco-2 Permeation Assay; assay type: in vitro ADME; conditions: Papp, 5 μM compound; for Cacoverap Kp 10^−6 cm/sec: A→B in the presence of 25 μM verapamil (P-gp inhibitor); for Caco Kp 10^−6 cm/sec: apical to basal (A→B)
# How it was run: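 Compound at 5 μM, in duplicate, crosses Caco-2 monolayers apical to basal over 120 min at 37 °C. This is run with and without 25 μM verapamil to test for P-gp efflux. Samples are quantified by LC-MS/MS, and Papp in cm/sec is calculated as dQ/(dt × area × concentration).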
# JAK3 = JAK3 (Homo sapiens (Human), UniProt P52333); assay: Biochemical JAK and Tyk2 Kinase Assays (LanthaScreen), JAK3; conditions: 1.6 μM ATP (Km), pIC50 converted to pKi by Cheng-Prusoff; for Ki: read-out: JAK 3 (pKi) (converted)
# [1] = system: IL-2 stimulated pSTAT5 in Tall-1 T cells; assay: Inhibition of IL-2 Stimulated pSTAT5 in Tall-1 T Cells; assay type: cell-based; conditions: Tall-1 human T cell line, IL-2 300 ng/mL, AlphaLisa; for IC50: read-out: Tall-1 IL2 pSTAT5 (pIC50) (converted)
# How it was run: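 Cells preincubated with compound 1 hour at 37° C, then stimulated with IL-2 (final 300 ng/mL) for 30 minutes. After lysis, pSTAT5 (Tyr694/699) read by AlphaLISA luminescence. IC50 from inhibition curves, reported as pIC50 (mean±SD).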
# Aqueous Solubility Assay = conditions: PBS buffer pH 7.4; maximum upper limit 1,000 μM
# Procedure: Assay 5: Aqueous Solubility Assay
# The purpose of this assay was to quantify the solubility of test compounds in pH 4 and pH 7.4 PBS buffers. The assay required 40 μL of 10 mM DMSO test compound solution per desired buffer in addition to 20 μL required to make a test standard. For example, to test a compound in both buffers, 100 μL (2*40 μL+20 μL) of 10 mM DMSO compound stock solution was required.
# The standard was created by diluting 20 μL of 10 mM DMSO compound stock solution into 180 μL of methanol and was shaken for five minutes to ensure solution uniformity. […] This 1,000 μM solution was run on an Agilent 1260 LC-MS system by injecting 2 μL in order to obtain the peak area. For the test solutions, 40 μL of 10 mM DMSO compound stock solution, per PBS buffer condition, were dried down into a powder overnight. Once in powder form, 400 μL of the desired PBS buffer was added to the powder and allowed to shake vigorously for four hours. The maximum theoretical concentration for this sample solution was 1,000 μM. After four hours of shaking, the samples were centrifuged for 10 minutes at 3,000 RPM before injecting 2 μL on the same Agilent 1260 LC-MS system to obtain the peak area.
# In Table 6 below, A represents a value above 500, B represents a value between 250 and 500, C represents a value between 50 and 250, D represents a value between 10 and 50, and E represents a value below 10.
# [2] = Solubility Assay in Organic Excipients; conditions: maximum upper limit 20,000 μM; for Solubility in MCT (mg/mL): medium chain triglycerides (MCT)
# [3] = oil or lipid, Solubility in MCT (mg/mL)
# [4] = organic solvent or mixture, Solubility in Diisopropyl adipate (mg/mL)
# [5] = organic solvent or mixture, Solubility in PEG400 (mg/mL)
# [6] = organic solvent or mixture, Solubility in Propylene glycol (mg/mL)
# Tyk2, sequence (P29597 whole entry): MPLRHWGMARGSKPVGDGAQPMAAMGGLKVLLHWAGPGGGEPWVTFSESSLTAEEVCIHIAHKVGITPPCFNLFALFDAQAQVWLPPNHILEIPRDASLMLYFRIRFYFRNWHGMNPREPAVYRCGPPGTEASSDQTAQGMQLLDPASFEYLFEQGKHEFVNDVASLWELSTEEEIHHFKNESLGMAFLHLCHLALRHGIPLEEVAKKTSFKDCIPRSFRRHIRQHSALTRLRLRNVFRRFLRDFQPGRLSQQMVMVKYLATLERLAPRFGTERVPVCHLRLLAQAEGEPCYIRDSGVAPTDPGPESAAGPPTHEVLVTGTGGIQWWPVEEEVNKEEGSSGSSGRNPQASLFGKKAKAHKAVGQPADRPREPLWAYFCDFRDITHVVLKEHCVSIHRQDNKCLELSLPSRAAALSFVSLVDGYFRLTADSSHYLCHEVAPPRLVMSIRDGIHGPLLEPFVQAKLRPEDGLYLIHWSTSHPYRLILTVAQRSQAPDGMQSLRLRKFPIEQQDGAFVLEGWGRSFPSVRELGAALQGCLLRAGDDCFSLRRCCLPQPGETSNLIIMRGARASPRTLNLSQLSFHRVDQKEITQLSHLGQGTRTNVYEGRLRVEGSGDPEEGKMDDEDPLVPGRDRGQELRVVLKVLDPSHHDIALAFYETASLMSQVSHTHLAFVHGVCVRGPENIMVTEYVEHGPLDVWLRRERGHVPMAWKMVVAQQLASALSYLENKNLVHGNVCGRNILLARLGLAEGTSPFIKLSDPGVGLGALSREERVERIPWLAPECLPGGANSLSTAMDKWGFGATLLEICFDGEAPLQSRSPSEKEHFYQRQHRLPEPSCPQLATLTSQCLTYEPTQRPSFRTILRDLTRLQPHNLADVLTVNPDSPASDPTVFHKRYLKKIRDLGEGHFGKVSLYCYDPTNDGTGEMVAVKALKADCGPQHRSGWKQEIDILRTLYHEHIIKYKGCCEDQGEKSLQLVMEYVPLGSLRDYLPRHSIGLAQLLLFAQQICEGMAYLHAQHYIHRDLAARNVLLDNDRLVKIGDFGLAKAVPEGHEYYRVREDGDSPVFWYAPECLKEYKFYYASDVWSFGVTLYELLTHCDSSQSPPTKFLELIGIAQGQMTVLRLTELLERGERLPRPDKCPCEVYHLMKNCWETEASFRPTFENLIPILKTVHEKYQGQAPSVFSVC
# JAK2, sequence (O60674 whole entry): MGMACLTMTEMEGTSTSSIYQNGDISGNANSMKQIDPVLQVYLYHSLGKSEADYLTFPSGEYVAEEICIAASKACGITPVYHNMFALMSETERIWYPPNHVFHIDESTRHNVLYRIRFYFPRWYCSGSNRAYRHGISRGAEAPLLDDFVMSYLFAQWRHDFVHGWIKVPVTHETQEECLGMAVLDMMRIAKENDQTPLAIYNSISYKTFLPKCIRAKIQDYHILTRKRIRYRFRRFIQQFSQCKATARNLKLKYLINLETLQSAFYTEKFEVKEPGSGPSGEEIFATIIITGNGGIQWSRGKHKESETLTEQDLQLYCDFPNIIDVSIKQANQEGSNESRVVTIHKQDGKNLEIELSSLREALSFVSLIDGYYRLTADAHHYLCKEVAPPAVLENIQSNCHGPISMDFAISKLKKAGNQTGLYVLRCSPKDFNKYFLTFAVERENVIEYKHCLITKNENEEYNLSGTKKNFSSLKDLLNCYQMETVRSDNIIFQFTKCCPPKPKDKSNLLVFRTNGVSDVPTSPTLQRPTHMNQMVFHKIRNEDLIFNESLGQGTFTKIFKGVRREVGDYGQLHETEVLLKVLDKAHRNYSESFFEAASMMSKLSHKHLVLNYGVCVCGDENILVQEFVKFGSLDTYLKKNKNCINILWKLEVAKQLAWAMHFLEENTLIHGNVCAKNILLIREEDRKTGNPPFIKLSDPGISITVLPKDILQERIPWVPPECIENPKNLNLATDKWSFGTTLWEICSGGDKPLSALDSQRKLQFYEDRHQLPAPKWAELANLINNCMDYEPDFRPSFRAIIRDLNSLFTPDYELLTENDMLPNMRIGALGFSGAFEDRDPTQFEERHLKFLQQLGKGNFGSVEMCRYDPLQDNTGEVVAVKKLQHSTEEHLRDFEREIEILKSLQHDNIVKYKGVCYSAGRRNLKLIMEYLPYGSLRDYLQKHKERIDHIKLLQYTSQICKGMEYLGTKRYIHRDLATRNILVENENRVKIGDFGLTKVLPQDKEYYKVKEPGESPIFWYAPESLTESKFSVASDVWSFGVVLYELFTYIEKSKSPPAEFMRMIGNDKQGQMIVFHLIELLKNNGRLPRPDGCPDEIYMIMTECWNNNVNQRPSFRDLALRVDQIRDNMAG
# JAK1, sequence (P23458 whole entry): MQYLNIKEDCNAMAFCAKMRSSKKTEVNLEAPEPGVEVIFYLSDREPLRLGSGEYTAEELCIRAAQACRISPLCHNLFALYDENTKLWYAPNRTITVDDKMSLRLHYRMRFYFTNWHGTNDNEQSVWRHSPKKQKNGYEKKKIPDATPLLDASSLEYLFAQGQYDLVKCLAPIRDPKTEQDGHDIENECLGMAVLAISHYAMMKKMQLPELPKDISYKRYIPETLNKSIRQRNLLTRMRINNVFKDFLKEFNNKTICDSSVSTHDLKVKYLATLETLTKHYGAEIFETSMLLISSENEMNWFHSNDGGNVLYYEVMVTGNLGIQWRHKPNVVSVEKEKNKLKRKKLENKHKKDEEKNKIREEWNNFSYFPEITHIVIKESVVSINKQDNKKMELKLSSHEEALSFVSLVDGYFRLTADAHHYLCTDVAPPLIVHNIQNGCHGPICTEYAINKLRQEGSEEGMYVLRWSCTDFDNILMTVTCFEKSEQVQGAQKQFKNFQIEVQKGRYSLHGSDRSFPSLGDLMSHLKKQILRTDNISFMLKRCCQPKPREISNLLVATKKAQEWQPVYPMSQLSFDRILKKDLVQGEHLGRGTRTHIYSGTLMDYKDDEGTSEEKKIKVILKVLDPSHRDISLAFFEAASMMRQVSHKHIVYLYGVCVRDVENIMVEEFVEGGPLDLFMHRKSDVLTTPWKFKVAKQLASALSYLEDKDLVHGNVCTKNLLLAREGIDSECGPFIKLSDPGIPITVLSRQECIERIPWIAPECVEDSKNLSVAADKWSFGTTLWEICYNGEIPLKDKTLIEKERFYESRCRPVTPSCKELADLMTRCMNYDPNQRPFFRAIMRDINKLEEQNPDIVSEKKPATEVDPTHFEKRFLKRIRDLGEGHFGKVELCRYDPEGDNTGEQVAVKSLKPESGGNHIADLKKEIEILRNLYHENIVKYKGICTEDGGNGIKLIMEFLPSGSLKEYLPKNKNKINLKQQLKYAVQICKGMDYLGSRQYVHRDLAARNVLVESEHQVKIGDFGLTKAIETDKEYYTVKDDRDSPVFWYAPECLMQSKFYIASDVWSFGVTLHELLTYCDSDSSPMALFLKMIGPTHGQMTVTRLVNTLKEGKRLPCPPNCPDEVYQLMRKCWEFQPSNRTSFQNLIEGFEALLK
# JAK3, sequence (P52333 whole entry): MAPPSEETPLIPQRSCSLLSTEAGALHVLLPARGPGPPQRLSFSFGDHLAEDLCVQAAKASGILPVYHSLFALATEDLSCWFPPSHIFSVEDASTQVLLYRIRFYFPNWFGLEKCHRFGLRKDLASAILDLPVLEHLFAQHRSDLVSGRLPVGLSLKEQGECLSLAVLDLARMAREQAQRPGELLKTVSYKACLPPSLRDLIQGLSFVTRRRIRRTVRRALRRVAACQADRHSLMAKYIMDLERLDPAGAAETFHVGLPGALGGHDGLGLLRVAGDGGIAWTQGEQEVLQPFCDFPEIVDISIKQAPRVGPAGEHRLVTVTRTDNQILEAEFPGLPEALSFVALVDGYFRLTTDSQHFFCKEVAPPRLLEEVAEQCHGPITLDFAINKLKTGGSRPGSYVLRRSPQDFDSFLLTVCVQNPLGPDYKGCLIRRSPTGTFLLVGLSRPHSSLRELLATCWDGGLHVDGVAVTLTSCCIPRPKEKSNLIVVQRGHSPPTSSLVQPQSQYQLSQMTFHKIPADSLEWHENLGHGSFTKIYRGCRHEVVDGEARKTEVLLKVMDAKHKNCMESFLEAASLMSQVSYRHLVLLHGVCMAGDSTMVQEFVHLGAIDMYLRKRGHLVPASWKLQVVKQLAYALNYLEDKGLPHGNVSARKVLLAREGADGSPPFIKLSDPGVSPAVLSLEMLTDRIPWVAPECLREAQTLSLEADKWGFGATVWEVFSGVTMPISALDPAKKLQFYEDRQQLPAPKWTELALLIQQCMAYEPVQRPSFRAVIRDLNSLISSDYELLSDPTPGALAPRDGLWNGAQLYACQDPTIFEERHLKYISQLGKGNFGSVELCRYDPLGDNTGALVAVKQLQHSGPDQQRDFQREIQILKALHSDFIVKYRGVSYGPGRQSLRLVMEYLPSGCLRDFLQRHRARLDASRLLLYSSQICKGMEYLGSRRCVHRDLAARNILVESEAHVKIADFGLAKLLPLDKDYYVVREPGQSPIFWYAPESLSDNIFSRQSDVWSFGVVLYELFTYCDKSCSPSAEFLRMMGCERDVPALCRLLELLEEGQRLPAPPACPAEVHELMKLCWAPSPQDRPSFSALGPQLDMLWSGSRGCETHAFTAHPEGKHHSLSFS
SMILES,JAK 1 (pKi) (JAK1),JAK 2 (pKi) (JAK2),Ki (Tyk2),solubility at 4 h (physchem; [3]),solubility at 4 h (physchem; [4]),solubility at 4 h (physchem; [5]),solubility at 4 h (physchem; [6]),Cacoverap Kp 10^−6 cm/sec (Caco-2 cell monolayer),Caco Kp 10^−6 cm/sec (Caco-2 cell monolayer),Ki (JAK3),IC50 [1],Tyk 2 (pKi) (Tyk2),Solubility at PH 7.4 (μmol) (Aqueous Solubility Assay),JAK 3 (pKi) (JAK3),Tall-1 IL2 pSTAT5 (pIC50) [1],Solubility in PEG400 (mg/mL) [2],Solubility in Diisopropyl adipate (mg/mL) [2],Solubility in MCT (mg/mL) [2],Solubility in Propylene glycol (mg/mL) [2],Ki (JAK1)
Cc1cc(Nc2cc(O[C@@H]3CCOC3)nc(N(C)[C@@H]3C[C@H]4CCC[C@@H](C3)N4C(=O)OC3CCOCC3)n2)n[nH]1 [Compound 21],A (A represents a pKi value ≥10 (Ki≤0.1 nM)),A (A represents a pKi value ≥10 (Ki≤0.1 nM)),0.1 to 1 nM,5000 to 10000 µg/mL,> 10000 µg/mL,> 10000 µg/mL,> 10000 µg/mL,B (B represents a value between 20×10^−6 and 35×10^−6 cm/sec),B (B represents a value between 15×10^−6 and 30×10^−6 cm/sec),0.1 to 1 nM,10 to 31.6 nM,–,–,–,–,–,–,–,–,–
"COCCOC(=O)N1[C@@H]2CCC[C@H]1C[C@H](N(C)c1nc(Nc3cc(C)[nH]n3)cc(C3CCCO3)n1)C2 (stereo partly drawn) [Compound 13, 2-methoxyethyl (1R,3s,5S)-3-(methyl(4-((5-methyl-1H-pyrazol-3-yl)amino)-6-(tetrahydrofuran-2-yl)pyrimidin-2-yl)amino)-9-azabicyclo[3.3.1]nonane-9-carboxylate]",A (A represents a pKi value ≥10 (Ki≤0.1 nM)),A (A represents a pKi value ≥10 (Ki≤0.1 nM)),–,–,–,–,–,–,–,–,–,B (B represents a pKi value between 9 and 10 (Ki between 1 nM and 0.1 nM)),C (C represents a value between 50 and 250),C (C represents a pKi value between 8 and 9 (Ki between 10 nM and 1 nM)),B (B represents a pIC50 value between 7.5 (included) and 8.0),A (A represents a value above 10),A (A represents a value above 10),B (B represents a value between 5 and 10),A (A represents a value above 10),–
COCCOC(=O)N1[C@@H]2CCC[C@H]1C[C@H](N(C)c1nc(Nc3cc(C)[nH]n3)cc(O[C@@H]3CCOC3)n1)C2 [Compound 22],A (A represents a pKi value ≥10 (Ki≤0.1 nM)),A (A represents a pKi value ≥10 (Ki≤0.1 nM)),0.1 to 1 nM,< 5000 µg/mL,> 10000 µg/mL,> 10000 µg/mL,> 10000 µg/mL,B (B represents a value between 20×10^−6 and 35×10^−6 cm/sec),B (B represents a value between 15×10^−6 and 30×10^−6 cm/sec),0.1 to 1 nM,10 to 31.6 nM,–,–,–,–,–,–,–,–,–
COCCC(=O)N1[C@@H]2CCC[C@H]1C[C@H](N(C)c1nc(Nc3cc(C)[nH]n3)cc(O[C@@H]3CCOC3)n1)C2 [Compound 25],–,A (A represents a pKi value ≥10 (Ki≤0.1 nM)),0.1 to 1 nM,< 5000 µg/mL,> 10000 µg/mL,> 10000 µg/mL,> 10000 µg/mL,–,–,0.1 to 1 nM,≤ 10 nM,–,–,–,–,–,–,–,–,0.1 to 1 nM
CCNC(=O)CN1[C@@H]2CCC[C@H]1C[C@H](N(C)c1nc(Nc3cc(C)[nH]n3)cc(O[C@H]3CCOC3)n1)C2 [Compound 32],A (A represents a pKi value ≥10 (Ki≤0.1 nM)),A (A represents a pKi value ≥10 (Ki≤0.1 nM)),0.1 to 1 nM,< 5000 µg/mL,> 10000 µg/mL,> 10000 µg/mL,> 10000 µg/mL,–,–,0.1 to 1 nM,–,–,–,–,–,–,–,–,–,–
Cc1cc(Nc2cc(O[C@H]3CCOC3)nc(N(C)[C@@H]3C[C@H]4CCC[C@@H](C3)N4CC(=O)N3CCCC3)n2)n[nH]1 [Compound 31],–,A (A represents a pKi value ≥10 (Ki≤0.1 nM)),0.1 to 1 nM,< 5000 µg/mL,< 5000 µg/mL,< 5000 µg/mL,< 5000 µg/mL,C (C represents a value between 12×10^−6 and 20×10^−6 cm/sec),C (C represents a value below 15×10^−6 cm/sec),0.1 to 1 nM,≤ 10 nM,–,–,–,–,–,–,–,–,0.1 to 1 nM
Cc1cc(Nc2cc(OC3COC3)nc(N(C)[C@@H]3C[C@H]4CCC[C@@H](C3)N4C(=O)CC3CC3)n2)n[nH]1 [Compound 35],A (A represents a pKi value ≥10 (Ki≤0.1 nM)),A (A represents a pKi value ≥10 (Ki≤0.1 nM)),–,< 5000 µg/mL,5000 to 10000 µg/mL,5000 to 10000 µg/mL,5000 to 10000 µg/mL,–,–,0.1 to 1 nM,≤ 10 nM,A (A represents a pKi value ≥10 (Ki≤0.1 nM)),–,–,–,–,–,–,–,–
"Cc1cc(Nc2cc(C3CCCO3)nc(N(C)[C@@H]3C[C@H]4CCC[C@@H](C3)N4C(=O)OC3CCOCC3)n2)n[nH]1 (stereo partly drawn) [Compound 14, tetrahydro-2H-pyran-4-yl (1R,3s,5S)-3-(methyl(4-((5-methyl-1H-pyrazol-3-yl)amino)-6-(tetrahydrofuran-2-yl)pyrimidin-2-yl)amino)-9-azabicyclo[3.3.1]nonane-9-carboxylate]",A (A represents a pKi value ≥10 (Ki≤0.1 nM)),A (A represents a pKi value ≥10 (Ki≤0.1 nM)),–,–,–,–,–,B (B represents a value between 20×10^−6 and 35×10^−6 cm/sec),B (B represents a value between 15×10^−6 and 30×10^−6 cm/sec),–,–,B (B represents a pKi value between 9 and 10 (Ki between 1 nM and 0.1 nM)),D (D represents a value between 10 and 50),C (C represents a pKi value between 8 and 9 (Ki between 10 nM and 1 nM)),B (B represents a pIC50 value between 7.5 (included) and 8.0),A (A represents a value above 10),A (A represents a value above 10),B (B represents a value between 5 and 10),A (A represents a value above 10),–

# — patent US11439641B2, “Pyrimidine JAK inhibitors for the treatment of skin diseases” (THERAVANCE BIOPHARMA R&D IP, LLC, priority 2019, dated 2022)
